For this assay, the target named is T1, RORγt ligand-binding domain (RORγt-LBD) (Homo sapiens, UniProt P51449).
T1 construct: 20 nM recombinantly expressed RORγ-LBD fused to GST
T1 sequence (P51449 269-508 limits assumed): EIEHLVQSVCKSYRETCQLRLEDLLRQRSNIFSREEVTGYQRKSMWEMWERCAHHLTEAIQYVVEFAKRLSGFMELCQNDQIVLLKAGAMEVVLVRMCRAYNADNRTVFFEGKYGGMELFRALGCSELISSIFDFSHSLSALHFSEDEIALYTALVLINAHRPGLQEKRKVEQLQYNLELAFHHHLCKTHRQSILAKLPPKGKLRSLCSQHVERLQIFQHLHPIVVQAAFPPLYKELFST
The assay can be described thus: Time-resolved FRET (TR-FRET) RORγt coactivator assay. The class given is biochemical. The note with it: GST-RORγ-LBD, biotinylated RIP140 peptide, coactivator displacement. (In general: TR-FRET usually uses a lanthanide donor and a delayed reading to cut background.)
The IC50 is the concentration needed to halve the response being measured. Read a low IC50 as inhibition by little substance. For `Cc1ccc(C(NC(=O)Cc2ccc3[nH]cc(CCC(=O)O)c3c2)c2ccccc2)c(N2CCOCC2)c1` (centres unmarked) [compound 81, 3-{5-[({[4-methyl-2-(morpholin-4-yl)phenyl](phenyl)methyl}carbamoyl)methyl]-1H-indol-3-yl}propanoic acid], the IC50 is less than 1000 nM.
As for `COc1ccc(C(NC(=O)Cc2ccc3[nH]cc(CCC(=O)O)c3c2)c2ccccc2)c(C)c1` (centres unmarked) [compound 83, 3-[5-({[(4-methoxy-2-methylphenyl)(phenyl)methyl]carbamoyl}methyl)-1H-indol-3-yl]propanoic acid], the figure is less than 1000 nM; as for `O=C(O)Cc1c[nH]c2ccc(CC(=O)NC(c3ccccc3)c3ccc(Cl)cc3N3CCCC3)cc12` (centres unmarked) [compound 85, 2-{5-[({[4-chloro-2-(pyrrolidin-1-yl)phenyl](phenyl)methyl}carbamoyl)methyl]-1H-indol-3-yl}acetic acid], less than 1000 nM; as for `O=C(O)Cc1c[nH]c2ccc(CC(=O)NC(c3ccccc3)c3ccc(C(F)(F)F)cc3N3CCCC3)cc12` (centres unmarked) [compound 89, 2-{5-[({phenyl[2-(pyrrolidin-1-yl)-4-(trifluoromethyl)phenyl]methyl}carbamoyl)methyl]-1H-indol-3-yl}acetic acid], less than 1000 nM.
As for `O=C(O)CCc1c[nH]c2ccc(CC(=O)NC(c3ccccc3)c3ccc(F)cc3N3CCCC3)cc12` (centres unmarked) [compound 93, 3-{5-[({[4-fluoro-2-(pyrrolidin-1-yl)phenyl](phenyl)methyl}carbamoyl)methyl]-1H-indol-3-yl}propanoic acid], the figure is less than 1000 nM.
On to `O=C(O)CCc1c[nH]c2ncc(NC(=O)NC(c3ccccc3)c3ccccc3N3CCCCC3)cc12` (centres unmarked) [compound 95, 3-{5-[({phenyl[2-(piperidin-1-yl)phenyl]methyl}carbamoyl)amino]-1H-pyrrolo[2,3-b]pyridin-3-yl}propanoic acid], for which the IC50 lay in the range of 1000 to 10000 nM.
As for `COc1cc(C)ccc1C(NC(=O)Cc1ccc2[nH]cc(CCC(=O)O)c2c1)c1ccccc1` (centres unmarked) [compound 99, 3-[5-({[(2-methoxy-4-methylphenyl)(phenyl)methyl]carbamoyl}methyl)-1H-indol-3-yl]propanoic acid], the figure is less than 1000 nM; as for `Cc1ccc(C(NC(=O)Cc2ccc3[nH]cc(CCC(=O)O)c3c2)c2ccc(C)s2)c(C)c1` (centres unmarked) [compound 101, 3-[5-({[(2,4-dimethylphenyl)(5-methylthiophen-2-yl)methyl]carbamoyl}methyl)-1H-indol-3-yl]propanoic acid], less than 1000 nM.
As for `Cc1ccc(C(NC(=O)Cc2ccc3[nH]cc(CCC(=O)O)c3c2)c2ccccc2)c(N2CCN(C)CC2)c1` (centres unmarked) [compound 103, 3-{5-[({[4-methyl-2-(4-methylpiperazin-1-yl)phenyl](phenyl)methyl}carbamoyl)methyl]-1H-indol-3-yl}propanoic acid], the figure is 1000 to 10000 nM; as for `O=C(O)CCc1c[nH]c2ccc(CC(=O)NC(c3ccccc3)c3ccccc3-n3cccc3)cc12` (centres unmarked) [compound 107, 3-{5-[({phenyl[2-(1H-pyrrol-1-yl)phenyl]methyl}carbamoyl)methyl]-1H-indol-3-yl}propanoic acid], less than 1000 nM.
As for `CC(C)NC(=O)CCc1c[nH]c2ccc(CC(=O)NC(c3ccccc3)c3ccccc3N3CCCCC3)cc12` (centres unmarked) [compound 118, 3-{5-[({phenyl[2-(piperidin-1-yl)phenyl]methyl}carbamoyl)methyl]-1H-indol-3-yl}-N-(propan-2-yl)propanamide], the figure is less than 1000 nM; as for `CN(C)Cc1ccccc1C(NC(=O)Cc1ccc2[nH]cc(CCC(=O)OC(C)(C)C)c2c1)c1ccccc1` (centres unmarked) [compound 121, tert-butyl 3-(5-{[({2-[(dimethylamino)methyl]phenyl}(phenyl)methyl)carbamoyl]methyl}-1H-indol-3-yl)propanoate], 1000 to 10000 nM; as for `O=C(O)CCc1c[nH]c2ccc(CC(=O)NC(c3ccccc3)c3ccccc3N3CCCC(O)C3)cc12` (centres unmarked) [compound 124, 3-{5-[({[2-(3-hydroxypiperidin-1-yl)phenyl](phenyl)methyl}carbamoyl)methyl]-1H-indol-3-yl}propanoic acid], 1000 to 10000 nM.
Consider `O=C(O)CCc1c[nH]c2ccc(CC(=O)NC(c3ccccc3)c3ccccc3N3CC=CCC3)cc12` (centres unmarked) [compound 128, 3-{5-[({phenyl[2-(1,2,3,6-tetrahydropyridin-1-yl)phenyl]methyl}carbamoyl)methyl]-1H-indol-3-yl}propanoic acid], for which the IC50 was less than 1000 nM.
The value for `O=C(O)CCc1c[nH]c2ccc(CC(=O)NC3(c4ccccc4N4CCCC4)CCCC3)cc12` [compound 130, 3-{5-[({1-[2-(pyrrolidin-1-yl)phenyl]cyclopentyl}carbamoyl)methyl]-1H-indol-3-yl}propanoic acid] was less than 1000 nM.
The value for `Cc1ccc(C(NC(=O)Cc2ccc3[nH]cc(CCC(=O)O)c3c2)c2ncccn2)c(N2CCCCC2)c1` (centres unmarked) [compound 132, 3-{5-[({[4-methyl-2-(piperidin-1-yl)phenyl](pyrimidin-2-yl)methyl}carbamoyl)methyl]-1H-indol-3-yl}propanoic acid] was less than 1000 nM.
As for `Cc1ccc(C(CC(C)C)NC(=O)Cc2ccc3[nH]cc(CCC(=O)O)c3c2)c(N(C)C)c1` (centres unmarked) [compound 134, 3-{5-[({1-[2-(dimethylamino)-4-methylphenyl]-3-methylbutyl}carbamoyl)methyl]-1H-indol-3-yl}propanoic acid], the figure is less than 1000 nM; as for `Cc1cnc(C(NC(=O)Cc2ccc3[nH]cc(CCC(=O)O)c3c2)c2ccccc2N2CCCCC2)s1` (centres unmarked) [compound 154, 3-[5-({[(5-methyl-1,3-thiazol-2-yl)[2-(piperidin-1-yl)phenyl]methyl]carbamoyl}methyl)-1H-indol-3-yl]propanoic acid], less than 1000 nM.
`Cc1ncc(C(NC(=O)Cc2ccc3[nH]cc(CCC(=O)O)c3c2)c2ccccc2N2CCCCC2)s1` (centres unmarked) [compound 156, 3-[5-({[(2-methyl-1,3-thiazol-5-yl)[2-(piperidin-1-yl)phenyl]methyl]carbamoyl}methyl)-1H-indol-3-yl]propanoic acid] registered a half-inhibitory concentration (IC50) of 1000 to 10000 nM.
The value for `Cc1ccc(C(NC(=O)Cc2ccc3[nH]cc(CCC(=O)O)c3c2)C2CC2)c2ccccc12` (centres unmarked) [compound 164, 3-[5-({[cyclopropyl(4-methylnaphthalen-1-yl)methyl]carbamoyl}methyl)-1H-indol-3-yl]propanoic acid] was less than 1000 nM; that for `O=C(O)Cc1c[nH]c2ccc(CC(=O)NC(c3ccccc3)c3cc(Cl)ccc3N3CCCCC3)cc12` (centres unmarked) [compound 166, 2-{5-[({[5-chloro-2-(piperidin-1-yl)phenyl](phenyl)methyl}carbamoyl)methyl]-1H-indol-3-yl}acetic acid] was 1000 to 10000 nM.
On to `O=C(O)CCc1c[nH]c2ccc(CC(=O)NC(c3ccccc3)c3cccc4cc[nH]c34)cc12` (centres unmarked) [compound 168, 3-[5-({[1H-indol-7-yl(phenyl)methyl]carbamoyl}methyl)-1H-indol-3-yl]propanoic acid], for which the IC50 is 1000 to 10000 nM.
The value for `Cn1ccc2cccc(C(NC(=O)Cc3ccc4[nH]cc(CCC(=O)O)c4c3)c3ccccc3)c21` (centres unmarked) [compound 170, 3-[5-({[(1-methyl-1H-indol-7-yl)(phenyl)methyl]carbamoyl}methyl)-1H-indol-3-yl]propanoic acid] was less than 1000 nM.

(Values after patent publication US9902725B2, “Heterocyclic derivatives as RORgamma modulators” (GENFIT, priority 2014, dated 2018).)
